Laboratory results from US11859212B2, “Method for producing intestinal organoid derived from pluripotent stem cells” (PUBLIC UNIVERSITY CORPORATION NAGOYA CITY UNIVERSITY, priority 2017, dated 2024).
Where two headings read alike, the source gives them in different places.

Experiments:
[1] = biological target: T1, ABCG2/BCRP (Homo sapiens, UniProt Q9UNQ0); experiment: Hoechst 33342 transport experiment, human intestinal organoids obtained with polysaccharide polymers; format: in vitro ADME
T1 sequence (Q9UNQ0 1-655): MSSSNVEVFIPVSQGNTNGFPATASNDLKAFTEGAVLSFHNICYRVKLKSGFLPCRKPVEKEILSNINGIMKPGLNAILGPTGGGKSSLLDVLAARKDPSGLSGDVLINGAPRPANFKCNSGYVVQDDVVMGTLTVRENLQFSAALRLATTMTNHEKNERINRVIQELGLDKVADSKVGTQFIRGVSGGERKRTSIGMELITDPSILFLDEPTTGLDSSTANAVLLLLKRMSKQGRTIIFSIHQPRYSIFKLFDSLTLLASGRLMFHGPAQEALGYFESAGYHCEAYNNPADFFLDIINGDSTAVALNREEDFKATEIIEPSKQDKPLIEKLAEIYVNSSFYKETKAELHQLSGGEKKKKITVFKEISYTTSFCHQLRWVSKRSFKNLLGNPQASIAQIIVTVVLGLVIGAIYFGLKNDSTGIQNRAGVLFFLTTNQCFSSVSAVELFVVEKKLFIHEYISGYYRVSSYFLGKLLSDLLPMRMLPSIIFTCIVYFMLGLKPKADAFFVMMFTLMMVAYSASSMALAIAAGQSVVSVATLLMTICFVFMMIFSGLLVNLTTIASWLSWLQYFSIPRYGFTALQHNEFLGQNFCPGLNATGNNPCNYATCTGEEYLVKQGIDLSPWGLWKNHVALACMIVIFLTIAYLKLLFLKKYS

[2] = system: CYP3A4
[3] = system: CYP3A8
[4] = system: CYP3A4; experiment: CYP3A4 induction ability of human intestinal organoids obtained with polysaccharide polymers (mRNA and midazolam metabolic activity); details: VD3 1 μmol/L, 72 hours
[5] = system: CYP3A4; experiment: Drug metabolism experiment with midazolam, CYP3A4 metabolic activity of human intestinal organoids obtained with polysaccharide polymers; details: 5 μmol/L midazolam
[6] = system: CYP3A8; experiment: Drug metabolism experiment with midazolam, CYP3A8 metabolic activity of cynomolgus monkey intestinal organoids; details: 5 μmol/L midazolam, 37° C., 24 hours
[7] = biological target: T2, ABCB1/MDR1 (Homo sapiens, UniProt P08183); experiment: Rhodamine 123 transport experiment, human intestinal organoids obtained with polysaccharide polymers; format: in vitro ADME
T2 sequence (P08183 whole entry): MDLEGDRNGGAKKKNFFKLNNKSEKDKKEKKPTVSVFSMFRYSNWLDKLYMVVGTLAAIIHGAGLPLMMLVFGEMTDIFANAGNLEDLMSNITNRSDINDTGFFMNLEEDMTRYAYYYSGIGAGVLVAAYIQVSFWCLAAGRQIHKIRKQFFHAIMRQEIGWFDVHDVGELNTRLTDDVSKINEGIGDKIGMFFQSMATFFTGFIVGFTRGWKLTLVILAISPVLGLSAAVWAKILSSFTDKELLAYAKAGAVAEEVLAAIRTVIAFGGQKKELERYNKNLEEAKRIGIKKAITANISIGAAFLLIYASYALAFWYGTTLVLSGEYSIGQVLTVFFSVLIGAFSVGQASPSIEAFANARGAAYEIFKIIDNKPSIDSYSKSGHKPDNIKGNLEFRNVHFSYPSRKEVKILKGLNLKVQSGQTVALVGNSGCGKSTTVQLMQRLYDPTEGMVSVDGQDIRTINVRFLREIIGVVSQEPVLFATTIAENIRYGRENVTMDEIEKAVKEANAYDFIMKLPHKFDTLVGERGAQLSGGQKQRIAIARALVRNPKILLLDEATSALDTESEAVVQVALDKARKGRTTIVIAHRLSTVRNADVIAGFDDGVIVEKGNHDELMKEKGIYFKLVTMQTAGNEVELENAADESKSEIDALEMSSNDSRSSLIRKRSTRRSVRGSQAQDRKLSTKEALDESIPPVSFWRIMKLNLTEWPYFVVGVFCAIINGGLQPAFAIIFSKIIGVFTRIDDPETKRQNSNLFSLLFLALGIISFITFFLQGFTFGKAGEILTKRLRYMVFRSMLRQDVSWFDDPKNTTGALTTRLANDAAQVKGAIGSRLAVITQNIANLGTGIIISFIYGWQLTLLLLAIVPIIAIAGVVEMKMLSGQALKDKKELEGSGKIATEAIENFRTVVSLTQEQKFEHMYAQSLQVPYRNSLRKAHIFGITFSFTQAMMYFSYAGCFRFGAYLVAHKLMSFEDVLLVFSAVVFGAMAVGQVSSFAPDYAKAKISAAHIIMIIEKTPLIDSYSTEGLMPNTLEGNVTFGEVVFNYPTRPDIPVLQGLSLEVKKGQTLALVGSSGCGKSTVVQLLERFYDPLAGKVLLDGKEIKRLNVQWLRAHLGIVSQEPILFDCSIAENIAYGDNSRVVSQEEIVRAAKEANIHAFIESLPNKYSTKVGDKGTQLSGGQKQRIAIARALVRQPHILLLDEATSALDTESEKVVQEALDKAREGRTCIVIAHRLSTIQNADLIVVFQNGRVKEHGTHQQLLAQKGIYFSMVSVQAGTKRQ

[8] = biological target: T2, ABCB1/MDR1; experiment: Rhodamine 123 uptake experiment, function of ABCB1/MDR1 in human intestinal organoids (fluorescence observation); format: in vitro ADME; details: rhodamine 123 10 μmol/L, 37° C., 1 hour, absence of verapamil

CCOc1ccc(-c2nc3ccc(-c4nc5ccc(N6CCN(C)CC6)cc5[nH]4)cc3[nH]2)cc1 [Hoechst 33342]
excretion of Hoechst 33342 into the intestinal organoids [1]: observed

C=C1/C(=C\C=C2/CCC[C@]3(C)[C@@H]([C@H](C)CCCC(C)(C)O)CC[C@@H]23)C[C@@H](O)C[C@@H]1O [VD3, 1α, 25-dihydroxyvitamin D3]
induction of mRNA expression of CYP3A4 as compared with the control group [2]: approximately 4.5 times | induction of mRNA expression of CYP3A8 as compared with the control group [3]: no induction | midazolam metabolic activity in the inducer-added group ([4]; 5 μmol/L midazolam): significantly increased | induction of mRNA expression of CYP3A4 as compared with the control group ([4]; organoids obtained with polysaccharide polymers): significantly induced

CC(=O)N1CCN(c2ccc(OCC3COC(Cn4ccnc4)(c4ccc(Cl)cc4Cl)O3)cc2)CC1 (stereo not shown) [ketoconazole]
effect of inhibitor on midazolam metabolic activity [5]: significantly inhibited

Cc1ncc2n1-c1ccc(Cl)cc1C(c1ccccc1F)=NC2 [midazolam]
midazolam metabolic activity [6]: observed | midazolam metabolic activity ([5]; 37° C., 24 hours): observed

rhodamine 123
excretion of rhodamine 123 into the intestinal organoids [7]: observed | excretion of rhodamine 123 into the intestinal organoids [8]: observed
